Experimental findings from US6407257B1, “Derivatives of erythromycin, their preparation process and their use as medicaments” (Aventis Pharma S.A., priority 1998, dated 2002) are described below.

The test system of assay [1] is Streptococcus pneumoniae. The assay is described as follows: Method of dilutions in liquid medium (minimal inhibitory concentration). It counts as cell-based. The settings on record: incubation 24 hours at 37° C., growth inhibition by transillumination. Here is the method: (§1) A—Method of Dilutions in Liquid Medium A series of tubes were prepared in which the same quantity of nutritive sterile medium is distributed. Increasing quantities of the product to be studied are distributed into each tube, then each tube is sown with a bacterial strain. After incubation for 24 hours in a heating chamber at 37° C., the growth inhibition is evaluated by transillumination, which allows the minimal inhibitory concentrations to be determined, expressed in micrograms/cm^3. The following results were obtained

In assay [2] the test system is Streptococcus pyogenes. Described as above. It is filed as cell-based. The settings on record: incubation 24 hours at 37° C., growth inhibition by transillumination. Here is the method: as §1

Consider “2-Fluoro-11,12-dideoxy-3-de[(2,6-dideoxy-3-C-methyl-3-0-methyl-alpha-L-ribohexopyranosyl)oxy]-6-0-methyl-3-oxo-12,11-[oxycarbonyl[[4-[4-(4-aminophenyl)-1H-imidazol-1-yl]butyl]imino]]-eryrthromycin [EX. 2]”, for which the figures for the minimal inhibitory concentrations in assay [1] and in assay [2] were 0.150 micrograms/cm^3 and 0.3 micrograms/cm^3, respectively.

Consider `CCC1OC(=O)C(C)C(=O)C(C)C(OC2OC(C)CC(N(C)C)C2O)C(C)(OC)CC(C)C(=O)C(C)C2N(CCCCn3cnc(-c4ccc(N)cc4)c3)C(=O)OC12C` [EX. 1, 11,12-Dideoxy-3-de[(2,6-dideoxy-3-C-methyl-3-0-methyl-alpha-L-ribohexopyranosyl)oxy]-6-0-methyl-3-oxo-12,11-[oxycarbonyl-[[4-[4-(4-aminophenyl)-1H-imidazol-1-yl]butyl]imino]]-eryrthromycin], for which the minimal inhibitory concentrations in assay [1] was determined as 1.2 micrograms/cm^3; in assay [2] it was 2.5 micrograms/cm^3.
